In paper PMC6588608 (Communications Biology, 2019):
Changes are numbered by the printed parent chain. Where two headings read alike, the source gives them in different places.

Experiments:
ETB receptor (wild type) = biological target: T1, ETB receptor (wild type) (Homo sapiens, UniProt P24530); experiment: TGFα shedding assay, antagonist activity against ET-1 (0.5 nM)-induced AP-TGFα release; assay type: cell-based; settings: Supplementary Fig. 5d, ETB (WT)
T1 construct: expressed in transfected cells; host or cells: HEK293A
T1 sequence (P24530 27-442): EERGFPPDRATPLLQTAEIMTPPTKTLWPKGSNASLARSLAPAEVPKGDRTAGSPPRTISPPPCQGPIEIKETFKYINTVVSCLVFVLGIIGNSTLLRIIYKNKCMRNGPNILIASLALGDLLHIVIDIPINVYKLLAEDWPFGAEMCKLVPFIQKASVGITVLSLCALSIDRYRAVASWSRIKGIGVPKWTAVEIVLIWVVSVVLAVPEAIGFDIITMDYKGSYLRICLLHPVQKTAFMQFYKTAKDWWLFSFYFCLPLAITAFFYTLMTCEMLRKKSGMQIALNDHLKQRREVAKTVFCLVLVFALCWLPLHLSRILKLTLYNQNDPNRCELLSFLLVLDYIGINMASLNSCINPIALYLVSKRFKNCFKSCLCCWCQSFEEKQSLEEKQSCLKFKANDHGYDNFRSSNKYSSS
Protocol: The TGFα shedding assay, which measures the activation of Gq/11 and G12/13 signaling, was performed as described previously. Briefly, a plasmid encoding an ETB construct with an internal FLAG epitope tag or an ETA construct was transfected, together with a plasmid encoding alkaline phosphatase (AP)-tagged TGFα (AP-TGFα), into HEK293A cells by using a polyethylenimine (PEI) transfection reagent (1 µg ETR plasmid, 2.5 µg AP-TGFα plasmid, and 25 µl of 1 mg per ml PEI solution per 10-cm culture dish). […] The AP-TGFα release signals were fitted to a four-parameter sigmoidal concentration-response curve, using the Prism 7 software (GraphPad Prism), and the pEC50 (equal to −log10 EC50) and Emax values were obtained.

ETB-WT = biological target: T2, ETB-WT (Homo sapiens, UniProt P24530); experiment: TGFα shedding assay, inverse agonist activity (4 h incubation); settings: for Emax: read-out: Emax ± SEM
T2 sequence (P24530 27-442): T1 sequence (P24530 27-442)
Protocol: (§1) The TGFα shedding assay, which measures the activation of Gq/11 and G12/13 signaling[24], was performed as described previously[22]. Briefly, a plasmid encoding an ETB construct with an internal FLAG epitope tag or an ETA construct was transfected, together with a plasmid encoding alkaline phosphatase (AP)-tagged TGFα (AP-TGFα), into HEK293A cells by using a polyethylenimine (PEI) transfection reagent (1 µg ETR plasmid, 2.5 µg AP-TGFα plasmid, and 25 µl of 1 mg per ml PEI solution per 10-cm culture dish). […] The AP-TGFα release signals were fitted to a four-parameter sigmoidal concentration-response curve, using the Prism 7 software (GraphPad Prism), and the pEC50 (equal to −log10 EC50) and Emax values were obtained.

[1] = biological target: T3, constitutively active ETB receptor (ETB-L3.43Q) (Homo sapiens, UniProt P24530, L192Q); experiment: TGFα shedding assay, antagonist activity against ET-1 (0.5 nM)-induced AP-TGFα release
T3 sequence (P24530 27-442 L192Q): T1 sequence (P24530 27-442) with L166Q
Protocol: as §1
(§2) To measure the constitutive activity in a plasmid volume-dependent manner, HEK293 cells were seeded in a 96-well plate at a concentration of 4 × 10^5 cells per ml in Opti-MEM I Reduced Serum Media (Thermo Fisher Scientific), in a volume of 80 μl per well. […] After adding the AP reaction solution, the absorbances of the cells and the CM plates were measured at 20 min intervals. The AP-TGFα release signals were calculated as described above, and the signal in the mock-transfected conditions was set at the baseline.

[2] = biological target: T4, ETA (L3.43Q) (constitutively active ETA receptor) (Homo sapiens, UniProt P25101, L176Q); experiment: TGFα shedding assay, inverse agonist activity (4 h incubation); settings: for change of the basal activity: ETA-L^3.43Q, Supplementary Fig. 6b, c
T4 sequence (P25101 21-427 L176Q): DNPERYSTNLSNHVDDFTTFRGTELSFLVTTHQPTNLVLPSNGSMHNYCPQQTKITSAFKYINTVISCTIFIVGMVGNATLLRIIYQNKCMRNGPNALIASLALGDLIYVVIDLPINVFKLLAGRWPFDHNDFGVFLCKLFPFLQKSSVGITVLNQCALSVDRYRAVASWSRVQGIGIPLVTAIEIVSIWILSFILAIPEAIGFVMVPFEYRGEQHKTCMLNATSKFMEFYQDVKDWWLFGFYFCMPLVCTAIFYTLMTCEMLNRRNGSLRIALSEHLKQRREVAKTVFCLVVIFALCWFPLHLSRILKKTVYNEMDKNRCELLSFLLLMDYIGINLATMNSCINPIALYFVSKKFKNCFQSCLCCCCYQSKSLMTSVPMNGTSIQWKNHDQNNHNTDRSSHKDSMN
Protocol: as §1, §2

[3] = biological target: T5, ETB-L192^3.43Q (constitutively active ETB receptor) (Homo sapiens, UniProt P24530, L192Q); experiment: as above; settings: for Emax: read-out: Emax ± SEM
T5 sequence (P24530 27-442 L192Q): T1 sequence (P24530 27-442) with L166Q
Protocol: as §1, §2

[4] = biological target: T6, constitutively active ETA receptor (ETA-L3.43Q) (Homo sapiens, UniProt P25101, L176Q); experiment: TGFα shedding assay, antagonist activity against ET-1 (0.5 nM)-induced AP-TGFα release
T6 sequence (P25101 21-427 L176Q): T4 sequence (P25101 21-427 L176Q)
Protocol: as §1, §2

ETA receptor (wild type) = biological target: T7, ETA receptor (wild type) (Homo sapiens, UniProt P25101); experiment: as above
T7 sequence (P25101 21-427): T4 sequence (P25101 21-427 L176Q) with Q156L
Protocol: as §1

ETA (WT) = biological target: T8, ETA (WT) (Homo sapiens, UniProt P25101); experiment: TGFα shedding assay, inverse agonist activity (4 h incubation)
T8 sequence (P25101 21-427): T4 sequence (P25101 21-427 L176Q) with Q156L
Protocol: as §1

ETB receptor = biological target: ETB receptor; parameters: method as in PMID 8587424; settings: read-out: IC50 as ETB-selective antagonist; cited from earlier work
[5] = test system: cold injury-mediated brain edema; parameters: method as in PMID 25000290, PMID 26174228; settings: animal model; intracerebroventricular administration; cited from earlier work

## CCCC[C@@H](NC(=O)[C@@H](Cc1cn(C(=O)OC)c2ccccc12)NC(=O)[C@H](CC(C)(C)C)NC(=O)N1[C@H](C)CCC[C@@H]1C)C(=O)O [BQ-788]
ETB receptor (wild type); read-out: IC50
  IC50: 0.11 µM
ETB receptor (wild type); read-out: pIC50 ± SEM (converted)
  IC50: 0.107 µM
ETB-WT
  Emax: < 2%
[1]; IC50, Supplementary Fig. 5d
  IC50: 0.075 µM
[1]; pIC50 ± SEM, Supplementary Fig. 5d
  IC50: 0.0741 µM
[2]
  Emax: < 2%
[3]; EC50, Table 3, ETB-L192^3.43Q, 4 h incubation, reduction of basal activity for inverse agonists
  EC50: 0.00096 µM
[3]; pEC50 (mean ± SEM), Table 3, ETB-L192^3.43Q, 4 h incubation
  EC50: 0.000955 µM
[3]
  Emax: -18.5 ± 0.7%
[4]
  IC50: > 10 µM
ETA receptor (wild type); IC50, Supplementary Fig. 5d, ETA (WT)
  IC50: > 10 µM
ETA (WT)
  Emax: < 2%

## Cc1cc(C)cc(C(=O)N(C)C(Cc2ccc(-c3ccccc3)cc2)C(=O)NC(Cc2c[nH]c3ccccc23)C(=O)O)c1 (centres unmarked) [IRL2500]
ETB receptor
  IC50: 0.0012 µM
ETB-WT
  Emax: < 2%
ETB-WT; wild-type ETB, 4 h-incubation, Fig. 4d
  change of the receptor activation level (ligand-induced AP-TGFα release): did not change the receptor activation level
[2]
  Emax: < 2%
  change of the basal activity: did not change the basal activity
[5]
  effect on cold injury-mediated brain edema and disruption of the blood–brain barrier: attenuated the cold injury-mediated brain edema and disruption of the blood–brain barrier
[3]
  Emax: -27 ± 1.1%
[4]
  IC50: > 3 µM
ETA receptor (wild type); IC50 for the ETA receptor, text on Fig. 1a
  IC50: > 3 µM
ETA receptor (wild type); pIC50 ± SEM ETA, Fig. 1a, HEK293 cells
  IC50: < 3.16 µM
ETA (WT)
  Emax: < 2%

## COc1ccccc1Oc1c(NS(=O)(=O)c2ccc(C(C)(C)C)cc2)nc(-c2ncccn2)nc1OCCC(=O)Nc1c(C)cccc1C [K-8794]
ETB receptor (wild type)
  pIC50 ± SEM: 8.06 ± 0.04
ETB receptor (wild type); read-out: IC50
  IC50: 0.0087 µM
ETB-WT; Table 3, ETB-WT, AP-TGFα release, spontaneous release set at baseline, 4 h
  Emax ± SEM: <2%
[1]; Supplementary Fig. 5d
  IC50: 0.0042 µM
  pIC50 ± SEM: 8.37 ± 0.06
[2]; Supplementary Fig. 6c, ETA (L3.43Q), AP-TGFα release, baseline = no compound, 4 h
  Emax: < 2%
[3]; Table 3, ETB-L192^3.43Q, 4 h incubation
  pEC50 (mean ± SEM): 9.21 ± 0.04
[3]; Table 3, ETB-L192^3.43Q, 4 h incubation, reduction of basal activity for inverse agonists
  EC50: 0.00061 µM
[3]; Table 3, ETB-L192^3.43Q, AP-TGFα release, spontaneous release set at baseline, 4 h
  Emax ± SEM: −31.5 ± 2.0%
[4]; Supplementary Fig. 5d, ETA (L3.43Q), ET-1 0.5 nM
  IC50: > 3 µM
ETA receptor (wild type); Supplementary Fig. 5d, ETA (WT)
  IC50: > 3 µM
ETA (WT); Supplementary Fig. 6c, ETA (WT), AP-TGFα release, baseline = no compound, 4 h
  Emax: < 2%

## COc1ccccc1Oc1c(NS(=O)(=O)c2ccc(C(C)(C)C)cc2)nc(-c2ncccn2)nc1OCCO [Bosentan]
[2]
  Emax: < 2%
  change of the basal activity: did not change the basal activity
ETA (WT)
  Emax: < 2%
